Experimental findings from ChEMBL document CHEMBL1143057, “Small molecule designed to target metal binding site in the alpha2I domain inhibits integrin function” (J Med Chem, 2007) are described below.

One may read the IC50 as the midpoint of a concentration-inhibition curve. A lower IC50 goes with inhibition by little substance. As a reminder, the inhibition is the relative decrease from the control value, in per cent.

Active and inactive are the calls of the source. The rule behind the calls is not given here.

Data set [1] addresses Integrin alpha-2 (Homo sapiens) (UniProt P17301). In words: Inhibition of integrin alpha-2 binding to collagen 4 at 50 uM.
Data set [2] concerns the target Integrin alpha-1 (Homo sapiens) (UniProt P56199). Briefly: Inhibition of integrin alpha-1 binding to collagen 1 at 50 uM.
Data set [3] shares this target. In words: Inhibition of integrin alpha-1 binding to collagen 4 at 50 uM.
The target in data set [4] is T1, Integrin alpha-2 (Homo sapiens, UniProt P17301).
T1 sequence (P17301 whole entry): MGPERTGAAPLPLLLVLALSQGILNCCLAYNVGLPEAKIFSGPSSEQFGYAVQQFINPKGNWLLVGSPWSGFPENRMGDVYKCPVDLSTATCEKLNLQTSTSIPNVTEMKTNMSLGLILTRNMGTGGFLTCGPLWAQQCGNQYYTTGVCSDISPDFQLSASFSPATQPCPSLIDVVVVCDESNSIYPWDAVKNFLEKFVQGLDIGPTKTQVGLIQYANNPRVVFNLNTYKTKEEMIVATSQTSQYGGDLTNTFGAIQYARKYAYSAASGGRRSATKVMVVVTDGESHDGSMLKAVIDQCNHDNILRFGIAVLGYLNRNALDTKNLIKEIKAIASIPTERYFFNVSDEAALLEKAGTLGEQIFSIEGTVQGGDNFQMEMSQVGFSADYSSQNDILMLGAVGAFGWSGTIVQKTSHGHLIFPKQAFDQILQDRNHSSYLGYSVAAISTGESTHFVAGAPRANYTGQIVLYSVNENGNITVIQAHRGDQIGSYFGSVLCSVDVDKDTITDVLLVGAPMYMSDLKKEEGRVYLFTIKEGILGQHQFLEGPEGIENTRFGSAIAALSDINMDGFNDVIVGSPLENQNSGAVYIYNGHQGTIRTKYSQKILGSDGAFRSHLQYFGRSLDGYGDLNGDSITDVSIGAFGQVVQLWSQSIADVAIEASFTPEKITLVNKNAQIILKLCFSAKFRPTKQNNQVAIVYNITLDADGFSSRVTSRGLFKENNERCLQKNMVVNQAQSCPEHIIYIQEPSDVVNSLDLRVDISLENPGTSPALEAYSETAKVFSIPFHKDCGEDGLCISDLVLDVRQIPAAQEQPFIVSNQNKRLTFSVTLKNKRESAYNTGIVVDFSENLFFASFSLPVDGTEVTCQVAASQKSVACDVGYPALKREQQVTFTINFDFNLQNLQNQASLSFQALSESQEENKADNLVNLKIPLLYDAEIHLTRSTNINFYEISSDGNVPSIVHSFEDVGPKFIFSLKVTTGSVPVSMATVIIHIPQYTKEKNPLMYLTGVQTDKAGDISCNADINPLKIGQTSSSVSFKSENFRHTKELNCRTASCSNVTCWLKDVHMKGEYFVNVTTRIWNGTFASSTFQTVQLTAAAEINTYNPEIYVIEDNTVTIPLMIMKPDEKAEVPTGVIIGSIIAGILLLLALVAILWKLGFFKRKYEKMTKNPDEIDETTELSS
In words: Inhibition of integrin alpha-2 domain binding to collagen 1 by Europium-labeled anti-GST assay.

Data set [5] is described as follows: Inhibition of integrin alpha-2 E318W mutant binding to collagen 1 by Europium-labeled anti-GST assay. Further details: species or system Homo sapiens.
For data set [6], the target named is Integrin alpha-2 (Homo sapiens) (UniProt P17301). In words: Inhibition of integrin alpha-2 domain binding to collagen 1 by Europium-labeled anti-GST assay relative to control. As to conditions: concentration not given here.
The nature of data set [7]: Inhibition of integrin alpha-2 E318W mutant binding to collagen 4 by Europium-labeled anti-GST assay. Also on record: species or system Homo sapiens.
The test system of data set [8] is CHO. In words: Inhibition of integrin alpha-2 expressing CHO cell adhesion to collagen 1 at 10 uM. The format is functional. As to conditions: Cricetulus griseus.
The test system of data set [9] is CHO. In words: Cytotoxicity against CHO cells at =< 50 uM. The format is cell-based, Cricetulus griseus. As to conditions: chinese hamster.
For data set [10], the system named is CHO. Briefly: Inhibition of integrin alpha2 Y285F beta-1 mutant binding to collagen 1 in CHO cells. Format: cell-based. The following applies: Homo sapiens.
For data set [11], the system named is CHO. Briefly: Cytotoxicity against CHO cells at =< 200 uM. The format is cell-based, Cricetulus griseus. As to conditions: chinese hamster.
Data set [12] concerns the target T2, Integrin alpha-11 (Homo sapiens) (UniProt Q9UKX5).
T2 sequence (whole entry): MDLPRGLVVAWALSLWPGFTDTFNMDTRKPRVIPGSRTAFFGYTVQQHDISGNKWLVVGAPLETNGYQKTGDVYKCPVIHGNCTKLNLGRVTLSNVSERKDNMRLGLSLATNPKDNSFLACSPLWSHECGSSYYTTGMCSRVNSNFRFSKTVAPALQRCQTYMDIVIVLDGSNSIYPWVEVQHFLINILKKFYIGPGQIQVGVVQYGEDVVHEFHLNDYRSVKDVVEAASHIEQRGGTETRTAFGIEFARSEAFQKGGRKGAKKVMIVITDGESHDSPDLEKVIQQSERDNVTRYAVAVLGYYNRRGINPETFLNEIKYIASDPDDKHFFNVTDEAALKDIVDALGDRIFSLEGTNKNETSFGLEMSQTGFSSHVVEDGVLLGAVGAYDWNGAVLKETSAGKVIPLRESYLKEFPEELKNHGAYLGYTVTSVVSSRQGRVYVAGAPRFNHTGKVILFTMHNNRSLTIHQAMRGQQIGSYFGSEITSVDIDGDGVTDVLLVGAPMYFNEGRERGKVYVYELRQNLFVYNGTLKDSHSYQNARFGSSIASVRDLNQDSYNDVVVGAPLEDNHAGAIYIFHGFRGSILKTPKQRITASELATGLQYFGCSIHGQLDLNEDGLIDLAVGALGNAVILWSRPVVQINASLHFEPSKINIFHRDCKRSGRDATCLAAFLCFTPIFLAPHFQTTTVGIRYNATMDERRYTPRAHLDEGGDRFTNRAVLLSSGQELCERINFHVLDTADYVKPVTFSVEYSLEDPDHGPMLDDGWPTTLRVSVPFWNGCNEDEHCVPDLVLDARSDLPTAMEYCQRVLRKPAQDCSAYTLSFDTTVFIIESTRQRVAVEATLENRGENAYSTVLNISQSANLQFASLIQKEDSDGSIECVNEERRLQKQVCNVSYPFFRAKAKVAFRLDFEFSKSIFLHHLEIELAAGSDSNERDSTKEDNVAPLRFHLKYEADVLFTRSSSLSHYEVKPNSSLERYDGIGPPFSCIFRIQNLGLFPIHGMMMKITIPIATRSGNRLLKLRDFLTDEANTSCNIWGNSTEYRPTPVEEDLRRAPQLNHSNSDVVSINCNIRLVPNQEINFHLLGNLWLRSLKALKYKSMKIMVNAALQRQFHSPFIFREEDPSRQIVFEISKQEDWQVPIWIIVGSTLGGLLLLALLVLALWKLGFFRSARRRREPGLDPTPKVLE
In words: Inhibition of integrin alpha-11 binding to collagen 1 at 50 uM.

For data set [13], the target named is T3, Integrin alpha-10 (Homo sapiens) (UniProt O75578).
T3 sequence (whole entry): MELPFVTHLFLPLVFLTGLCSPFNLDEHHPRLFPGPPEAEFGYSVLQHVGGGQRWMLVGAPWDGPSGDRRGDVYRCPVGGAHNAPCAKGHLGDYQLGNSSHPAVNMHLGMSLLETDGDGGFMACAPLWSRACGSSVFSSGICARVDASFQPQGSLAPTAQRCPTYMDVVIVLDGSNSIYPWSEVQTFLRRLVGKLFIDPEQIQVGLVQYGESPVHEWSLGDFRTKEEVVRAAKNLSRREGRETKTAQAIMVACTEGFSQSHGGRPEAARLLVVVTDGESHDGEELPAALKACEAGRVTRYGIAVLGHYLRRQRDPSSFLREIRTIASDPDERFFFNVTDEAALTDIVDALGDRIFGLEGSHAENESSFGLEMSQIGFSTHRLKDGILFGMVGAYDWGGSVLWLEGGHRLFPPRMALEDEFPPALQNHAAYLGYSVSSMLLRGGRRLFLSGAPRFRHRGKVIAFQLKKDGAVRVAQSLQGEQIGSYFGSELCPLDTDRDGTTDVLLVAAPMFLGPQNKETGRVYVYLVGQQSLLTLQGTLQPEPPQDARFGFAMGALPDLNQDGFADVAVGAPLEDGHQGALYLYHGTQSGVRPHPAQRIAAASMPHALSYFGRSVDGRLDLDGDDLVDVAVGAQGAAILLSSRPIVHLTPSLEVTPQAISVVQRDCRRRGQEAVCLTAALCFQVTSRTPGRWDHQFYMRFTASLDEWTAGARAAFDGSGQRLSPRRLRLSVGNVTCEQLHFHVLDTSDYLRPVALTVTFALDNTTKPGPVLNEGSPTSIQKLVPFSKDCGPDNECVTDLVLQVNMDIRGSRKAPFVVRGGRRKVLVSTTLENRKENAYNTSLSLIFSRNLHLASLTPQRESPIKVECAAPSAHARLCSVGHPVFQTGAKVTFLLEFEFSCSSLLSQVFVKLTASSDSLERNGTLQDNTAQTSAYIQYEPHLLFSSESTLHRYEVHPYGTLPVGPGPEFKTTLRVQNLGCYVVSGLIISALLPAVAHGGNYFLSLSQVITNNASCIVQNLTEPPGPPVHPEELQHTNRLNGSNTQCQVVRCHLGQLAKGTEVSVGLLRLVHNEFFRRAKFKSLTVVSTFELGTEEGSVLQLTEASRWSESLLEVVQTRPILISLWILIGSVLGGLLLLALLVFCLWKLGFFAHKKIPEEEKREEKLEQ
In words: Inhibition of integrin alpha-10 binding to collagen 1 at 50 uM.

Chain of Integrin alpha-1 (Homo sapiens) (P56199 whole entry): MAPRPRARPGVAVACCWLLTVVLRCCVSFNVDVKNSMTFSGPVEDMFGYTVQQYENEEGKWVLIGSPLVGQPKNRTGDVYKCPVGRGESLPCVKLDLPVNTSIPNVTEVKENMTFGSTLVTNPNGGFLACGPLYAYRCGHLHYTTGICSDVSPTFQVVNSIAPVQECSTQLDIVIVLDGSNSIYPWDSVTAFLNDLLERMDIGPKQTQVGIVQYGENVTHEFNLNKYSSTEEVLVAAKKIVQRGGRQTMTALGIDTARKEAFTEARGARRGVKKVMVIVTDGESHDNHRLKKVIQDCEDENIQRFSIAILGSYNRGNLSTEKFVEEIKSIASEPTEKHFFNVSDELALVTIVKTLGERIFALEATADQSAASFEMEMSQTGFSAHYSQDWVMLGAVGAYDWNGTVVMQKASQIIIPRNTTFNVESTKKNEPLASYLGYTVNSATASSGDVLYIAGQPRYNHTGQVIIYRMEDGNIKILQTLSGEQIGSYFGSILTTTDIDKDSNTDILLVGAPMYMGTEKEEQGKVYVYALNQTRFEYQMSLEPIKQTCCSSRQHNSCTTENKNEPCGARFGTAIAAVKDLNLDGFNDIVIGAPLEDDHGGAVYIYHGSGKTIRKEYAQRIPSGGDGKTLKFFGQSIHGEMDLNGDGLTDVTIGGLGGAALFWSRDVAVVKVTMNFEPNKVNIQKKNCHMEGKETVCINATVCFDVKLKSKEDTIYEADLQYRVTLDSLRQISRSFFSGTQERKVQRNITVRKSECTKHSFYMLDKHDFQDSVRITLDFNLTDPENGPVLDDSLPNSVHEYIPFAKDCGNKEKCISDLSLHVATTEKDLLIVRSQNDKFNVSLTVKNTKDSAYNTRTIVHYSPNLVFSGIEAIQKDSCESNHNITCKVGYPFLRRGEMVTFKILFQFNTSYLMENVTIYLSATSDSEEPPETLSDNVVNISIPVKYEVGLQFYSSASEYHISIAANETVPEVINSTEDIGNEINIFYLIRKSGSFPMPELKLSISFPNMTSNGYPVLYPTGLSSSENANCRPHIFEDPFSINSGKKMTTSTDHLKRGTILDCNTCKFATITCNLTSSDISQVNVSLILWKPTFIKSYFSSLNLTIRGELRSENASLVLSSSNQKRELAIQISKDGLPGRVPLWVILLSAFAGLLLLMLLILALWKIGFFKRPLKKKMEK

On to `CCc1cc(O)c2c(O)c3c(cc2c1C(=O)OC)C(=O)c1cccc(O)c1C3=O`, for which the result in [1], in [2] and in [3] was Active. The compound also registered an IC50 in data set [4] of 50 µM.

Turning to `CCc1cc(O)c2c(O)c3c(c(O)c2c1C(=O)OC)C(=O)c1cccc(O)c1C3=O` [ANHYDROMAGGIEMYCIN], the figures for the concentration for half-maximal inhibition (IC50) in [5] and in data set [7] were 160 µM and 131 µM, respectively. Further, the inhibition is 100% in [6] and -3.3% in [10]. Also, in data set [8], the inhibition at 10 µM was found to be 35%. In addition, in [9], the Activity entry is on record as “Non-toxic”.

As to `CCc1cc(NCCO)c2c(O)c3c(c(O)c2c1C(=O)OC)C(=O)c1cccc(O)c1C3=O`, the inhibition in data set [6] was 0%. Further, in data set [8], the inhibition at 10 µM amounted to 30%. Besides, the Activity result in [11] is “Non-toxic”.

As to `CCC1(O)CC(=O)c2c(O)c3c(c(O)c2C1C(=O)OC)C(=O)c1cccc(O)c1C3=O` (stereo unspecified) [MAGGIEMYCIN], in data set [6], the inhibition came out at 65%. Moreover, the inhibition at 10 µM in data set [8] amounted to 10%. Moreover, in data set [11], the Activity entry is “Non-toxic”.

For the compound `COC(=O)c1c(C(C)C)cc(O)c2c(O)c3c(c(O)c12)C(=O)c1cccc(O)c1C3=O`, in [6], the inhibition was 90%. The outcome in data set [12] and in data set [13] was Active. Moreover, the inhibition at 10 µM in [8] is 40%. Also, in data set [9], the Activity entry is listed as “Non-toxic”.
